Measurements from paper PMC11124387, “A Reliable Multifaceted Solution against Foodborne Viral Infections: The Case of RiLK1 Decapeptide” (Molecules, 2024).
Where “and” joins values, the source holds several entries; their conditions need not be identical. Equal entries are not always repeated. Where a SMILES comes first, the peptide text is derived from it.

Assays:
[1] = system: Murine norovirus strain 1 (MNV-1); assay: Entry assay, MNV-1; type: cell-based; settings: entry: cells with virus 1 h at 4 °C, then peptide 80 µM 1 h 37 °C, mean ± SD
Method: (§1) Four sets of experiments were performed to suppose the effect of RiLK1 and RiLK3 on HAV and MNV-1 [29]. To this aim, 80 µM solutions of the two peptides and HAV and MNV-1 suspensions at a final concentration of 4.7 ± 0.2 log TCID50/mL and 4.5 ± 0.2 log TCID50/mL, respectively, were used in the following experiments: • i) A virus pre-treatment assay to assess the direct interaction between the virus and peptide: the incubation of the peptide with viral suspension for 1 h at room temperature was carried out, followed by its incubation on cells for 1 h at 37 °C. Then, cell monolayers were washed twice with PBS and incubated with 500 µL DMEM/MEM supplemented with 2% of FBS to determine the TCID50/mL. • ii) A cell pre-treatment assay to assess the interaction between the peptide and cells before the viral infection: cell monolayers were preincubated with 100 µL of peptide solution for 1 h at 37 °C, followed by the removal of the peptide, addition to cells of viral suspensions for 1 h at 37 °C, washing step, and culture with 2% FBS DMEM/MEM. • iii) An attachment assay to assess the possible action of the peptide at the stage of virus attachment to cells: cell monolayers were incubated with 100 µL of a suspension containing both the peptide and virus and were incubated for 1 h at 4 °C. Subsequently, the cell monolayers were washed with PBS and incubated for 1 h at 37 °C with a culture medium followed by a washing step and the addition of culture with 2% FBS DMEM/MEM. • iv) An entry assay to assess the possible action of the peptide at the stage of virus internalization into cells: cell monolayers were incubated with 100 µL of the viral suspension for 1 h at 4 °C, followed by the addition of the peptide and incubation for 1 h at 37 °C. Cells were then washed with PBS, and 2% FBS DMEM/MEM was finally added.
(§2) Untreated viral suspensions and peptide solutions, incubated at the same conditions, were used as controls.
(§3) For each treatment, the average and standard deviation of the triplicate analyses were calculated. The virucidal effects of AMPs was assessed by calculating the log reduction value (LRV), i.e., the difference between the infectious titer (log-transformed) of untreated versus treated samples. The statistical significance of differences between treated and untreated samples was determined through one-way analysis of variance (ANOVA) with Bonferroni post hoc comparisons, with a significance level of p < 0.05 (GraphPad Prism v9.5.0, software San Diego, CA, USA).

[2] = system: Murine norovirus strain 1 (MNV-1); assay: Cell pre-treatment assay, MNV-1; type: cell-based; settings: cell pre-treatment: cells with peptide 80 µM 1 h 37 °C, peptide removed, then virus 1 h 37 °C, mean ± SD
Method: as §1, §2, §3

[3] = system: Hepatitis A virus (HAV) strain HM-175; assay: Virus pre-treatment assay, HAV; type: cell-based; settings: virus pre-treatment: peptide 80 µM with virus 1 h at RT, mean ± SD; for Viral Titre: then on Frp3 cells 1 h 37 °C
Method: as §1, with “Subsequently, the cell monolayers were washed with PBS and incubated for 1 h at 37 °C with a culture medium followed by a washing step and the addition of culture with 2% FBS DMEM/MEM. • iv) An entry assay to assess the possible action of the peptide at the stage of virus internalization into cells: cell monolayers were incubated with 100 µL of the viral suspension for 1 h at 4 °C, followed by the addition of the peptide and incubation for 1 h at 37 °C. Cells were then washed with PBS, and 2% FBS DMEM/MEM was finally added.” left out
as §3

[4] = cited from earlier work; for structural stability: pH 2; for conformation in mimicked membrane solutions (self-aggregation): ref [41],[42],[43],[44],[45]
Method: In this context, to acquire important information on how the conformational properties of peptides might influence the structure–function relationships and their distinct membrane interaction profiles, the propensity of the new peptides, RiLK30 and AVP2, to adopt a defined secondary structure and to undergo conformational changes were examined by circular dichroism and fluorescence spectroscopy. These analyses were performed in the presence of a negatively charged SDS that is commonly used as a biomimetic membrane model to study the structural features of membranotropic molecules. In previous ...

[5] = system: Murine norovirus strain 1 (MNV-1); assay: Virus pre-treatment assay, MNV-1; type: cell-based; settings: virus pre-treatment: peptide 80 µM with virus 1 h at RT, mean ± SD; for Viral Titre: then on RAW 264.7 cells 1 h 37 °C
Method: as §1, with “Subsequently, the cell monolayers were washed with PBS and incubated for 1 h at 37 °C with a culture medium followed by a washing step and the addition of culture with 2% FBS DMEM/MEM. • iv) An entry assay to assess the possible action of the peptide at the stage of virus internalization into cells: cell monolayers were incubated with 100 µL of the viral suspension for 1 h at 4 °C, followed by the addition of the peptide and incubation for 1 h at 37 °C. Cells were then washed with PBS, and 2% FBS DMEM/MEM was finally added.” left out
as §3

[6] = system: Hepatitis A virus (HAV) strain HM-175; assay: Attachment assay, HAV; type: cell-based; settings: attachment: cells with peptide 80 µM and virus together 1 h at 4 °C, mean ± SD
Method: as §1, §2, §3

[7] = system: Hepatitis A virus (HAV) strain HM-175; assay: Entry assay, HAV; type: cell-based; settings: entry: cells with virus 1 h at 4 °C, then peptide 80 µM 1 h 37 °C, mean ± SD
Method: as §1, §2, §3

[8] = type: physicochemical
Method: Circular Dichroism (CD) analysis was performed by a Jasco J-810 spectropolarimeter. The samples were loaded into a quartz cuvette of 0.1 cm path length (Hellma Analytics), and the spectra were recorded in the 195–250 nm range at a scan speed of 20 nm/min, averaging 5 scans. CD experiments were carried out in 10 mM Tris-HCl buffer, pH 7.0, as a function of SDS concentrations (3, 50, and 150 mM) at a peptide concentration of 50 µM. The folding kinetic measurements of the peptides were performed after the addition of SDS (50 mM) to each sample (50 µM in 10 mM Tris-HCl, pH 7.0) up to 24 h of incubation. For thermal stability analyses, the peptides were prepared to a final concentration of 50 μM in 10 mM Tris-HCl, pH 7.0, and then they were incubated at 4 and 25 °C up to 48 h before acquiring the CD spectra in the presence of 50 mM SDS. A blank spectrum of a sample containing all components except the peptide was acquired for the baseline correction of the CD spectra of the peptide. The mean residue ellipticity ([θ], deg cm^2 dmol^−1) was obtained by the equation [θ] = 100 θ/cnl, where θ is the ellipticity (mdeg), c is the peptide concentration (mM), n is the number of residues, and l is the path length (cm).
Tryptophan (Trp) fluorescence emission spectra were recorded at 25 °C on a Shimadzu RF-6000 spectrofluorometer (Kyoto, Japan), with both excitation and emission slit widths set at 5 nm. The intrinsic Trp was excited at a wavelength of 280 nm and the emission was monitored between 300 and 400 nm. Fluorescence measurements were carried out in 10 mM Tris-HCl buffer, pH 7.0, as a function of SDS concentrations (3, 50, and 150 mM) at a peptide concentration of 50 µM. The folding kinetic experiments of AVP2 and RiLK30 were performed after the addition of SDS (50 mM) to each sample (50 µM concentration in 10 mM Tris-HCl buffer, pH 7.0) up to 24 h of incubation. The effect of temperature on peptide folding was analyzed by dissolving the peptides at a final concentration of 50 µM in 10 mM Tris-HCl buffer, pH 7.0, and incubating them at 4 and 25 °C up to 48 h. The spectra were recorded in the presence of 50 mM SDS.

## CC[C@H](C)[C@H](NC(=O)[C@H](CCCNC(=N)N)NC(=O)[C@@H](NC(=O)[C@H](Cc1c[nH]c2ccccc12)NC(=O)[C@H](CCCCN)NC(=O)[C@H](CC(C)C)NC(=O)[C@@H](N)CCCNC(=N)N)C(C)C)C(=O)N[C@@H](Cc1c[nH]c2ccccc12)C(=O)N[C@@H](CCCNC(=N)N)C(=O)N[C@@H](CCCNC(=N)N)C(N)=O [RiLK1] (H-RLKWVRIWRR-NH2; N-terminus assumed)
[1]
  LRV: 1.0 ± 0.4 logTCID50/mL
  Viral Titre: 3.5 ± 0.2 logTCID50/mL
[1]; listed as RilLK1
  LRV: 1.0 logTCID50/mL
[2]
  LRV: 0.3 ± 0.4 logTCID50/mL
  Viral Titre: 4.2 ± 0.2 logTCID50/mL
[3]
  Viral Titre: 3.3 ± 0.2 logTCID50/mL
[4]
  structural stability: high structural stability
  conformation in mimicked membrane solutions (self-aggregation): higher-ordered self-aggregates
[5]
  Viral Titre: 3.3 ± 0.2 logTCID50/mL
[6]
  LRV: 1.4 logTCID50/mL and 1.4 ± 0.4 logTCID50/mL
  Viral Titre: 3.3 ± 0.2 logTCID50/mL
[7]
  LRV: 0.1 ± 0.3 logTCID50/mL
  Viral Titre: 4.6 ± 0.1 logTCID50/mL

## KLRWVKIWKK-NH2 [RiLK30, newly designed RiLK1 derivative, Arg residues exchanged with Lys and Lys3 with Arg]
[8]; pH 7
  thermal (conformational) stability in SDS micellar solution: at least 48 h
[8]; peptide 50 µM, 10 mM Tris-HCl pH 7.0, SDS 50 mM, 24 h incubation at 37 °C (legend: 25 °C)
  conformational rearrangement over time (CD and fluorescence spectra): did not appear to undergo significant changes
[8]; peptide 50 µM, 10 mM Tris-HCl pH 7.0, SDS 3, 50, 150 mM, 25 °C
  self-aggregation (CD in SDS): high propensity to self-aggregate

## RLRWVRIWRR-NH2 [RiLK3, RiLK1 analog differing by one amino acid (Lys replaced with Arg), C-terminally amidated]
[1]
  LRV: 1.0 ± 0.3 logTCID50/mL
  Viral Titre: 3.5 ± 0.1 logTCID50/mL
[2]
  LRV: 1.0 logTCID50/mL and 1.0 ± 0.3 logTCID50/mL
  Viral Titre: 3.5 ± 0.1 logTCID50/mL
[3]
  Viral Titre: 4.4 ± 0.1 logTCID50/mL
[3]; then on cells 1 h 37 °C
  LRV: 0.3 ± 0.3 logTCID50/mL
[4]
  structural stability: high structural stability
  conformation in mimicked membrane solutions (self-aggregation): higher-ordered self-aggregates
[5]
  Viral Titre: 4.5 ± 0.1 logTCID50/mL
[5]; then on cells 1 h 37 °C
  LRV: 0 ± 0.3 logTCID50/mL
[6]
  LRV: 1.0 logTCID50/mL and 1.0 ± 0.4 logTCID50/mL
  Viral Titre: 3.7 ± 0.2 logTCID50/mL
[7]
  LRV: 0.5 ± 0.4 logTCID50/mL
  Viral Titre: 4.2 ± 0.2 logTCID50/mL
